{
  "source": "patent US20100218415A1",
  "about": "“HYDROXYMETHYLFURFURAL ETHERS FROM SUGARS AND HIGHER ALCOHOLS” (FURANIX TECHNOLOGIES B.V., priority 2007, published 2010)",
  "experiment": "Fuel solubility: blends with commercial diesel",
  "type": "physicochemical",
  "source_text": "Fuel solubility is a primary concern for diesel fuel applications. Not all highly polar oxygenates have good solubility in the current commercial diesel fuels.",
  "note": "Like-named read-outs stand apart in the source and are kept apart here.",
  "data": [
    {"smiles": "CCOCc1ccc(C=O)o1", "note": "[EMF, ethoxymethylfurfural]", "values": [
      {"measurement": "miscibility with commercial diesel", "setting": "5 vol % blend with commercial diesel", "result": "completely miscible"},
      {"measurement": "miscibility with commercial diesel", "setting": "25 vol % blend with commercial diesel", "result": "phase separation occurs"},
      {"measurement": "miscibility with commercial diesel", "setting": "40 vol % blend with commercial diesel", "result": "phase separation occurs"}
    ]},
    {"smiles": "CCCCCCCCOCc1ccc(C=O)o1", "note": "[OMF, 5-(octyloxymethyl)furfural]", "values": [
      {"measurement": "miscibility with commercial diesel", "result": "completely miscible"}
    ]}
  ]
}
